Where two headings read alike, the source gives them in different places.

Series [1] has as its target T1, WT TTR (Homo sapiens, UniProt P02766).
T1 construct: made in house; host or cells: E. coli
Put plainly: Stagnant transthyretin aggregation (fibril formation) assay, turbidity. It counts as biochemical.
Procedure: Stagnant aggregation assays were performed as described previously (Lashuel, H. A.; et al. Biochemistry 1999, 38, 13560-13573). A 0.495 mL sample of TTR (7.6 μM (0.4 mg/mL) in 10 mM sodium phosphate, 100 mM KCl, and 1 mM EDTA at pH 7.0) was incubated with 5 μL of isoflavone or flavone inhibitor in DMSO (0.76 mM or 1.44 mM). After 30 min, the samples were diluted with 0.5 mL of 200 mM acetate buffer (pH 4.2, final pH 4.4 for WT and V122I, pH 4.8, final pH 5.0 for V30M) containing 100 mM KCl and 1 mM EDTA. Samples were briefly vortexed and then further incubated at 37° C. for 72 h without stirring. The extent of aggregation was probed by turbidity measurements at 350 and 400 nm on an HP 8453 UV-visible spectrometer. Single-time point samples (72 h) were vortexed immediately before the measurement.
Aggregate formation is reported relative to WT or mutant TTR homotetramer where amount of aggregation in the absence of inhibitor is assigned to be 100%.
Blue bars represent data from an aggregate formation assay wherein tetrameric TTR (3.6 μM) is preincubated with inhibitor (3.6 μM or 7.2 μM) for 30 min prior to lowering the pH to 4.4 (72 h). The Y axis in each bar graph (optical density at 350 nm) represents aggregate formation relative to WT TTR (3.6 μM) assigned as 100%.

In series [2] the target is TTR in human blood plasma (Homo sapiens, UniProt P02766). Put plainly: Plasma selectivity binding to TTR, antibody capture/HPLC method. The following applies: 10.8 μM compound in human plasma, 37° C., 18 h; maximum 2.0; lower limit because of wash losses.
The next series has as its target T2, V122I TTR (Homo sapiens, UniProt P02766, V142I).
T2 construct: made in house; host or cells: E. coli
Put plainly: Urea-mediated tetramer dissociation by far-UV circular dichroism. The following applies: V122I TTR 1.8 μM, 6.0 M urea, after 120 h. It counts as biochemical. The protocol: (§1) TTR (400 μL, 0.25 mg/mL; 4.5 μM tetramer) was pre-incubated with genistein at concentrations of either 4.5 or 9.0 μM for 18 h at 25° C. Urea (10M, 600 μL) in 50 mM phosphate buffer (pH 7.0) containing 100 mM KCl, 1 mM EDTA and 1 mM DTT was added to the samples immediately prior to the first measurement (1.0 mL total volume, 6.0 M urea, 0.1 mg/mL TTR (1.8 μM tetramer) final concentration). Circular dichroism spectra were recorded as a function of time up to 120 h (25° C.) using a wavelength scan from 220 to 214 nm, sampling every 0.5 nm. The signal from 218 to 215 was averaged and plotted to determine the fraction of TTR tetramer that was dissociated and unfolded at each time point.
(§2) Genistein was further tested for its ability to kinetically stabilize tetrameric TTR against urea-induced dissociation. Since dissociation of the tetramer is required for urea-induced monomer denaturation, it is possible to monitor rate-limiting tetramer dissociation by linking this process to fast monomer unfolding in a post-transition urea concentration (6 M), rendering the process irreversible. The rate and extent of tetramer dissociation at different small molecule concentrations was monitored by far-UV CD spectroscopy in 6.0 M urea. Genistein exerts its most dramatic effect on the amplitude of WT TTR tetramer dissociation (FIG. 4A). At equimolar amounts of genistein and WT TTR (1.8 μM), only 10% of the protein dissociates and unfolds after 120 h, implying that the remainder is stabilized as a consequence of small molecule binding. This compares to 33% of dissociation for V122I (FIG. 4C, triangles) and 87% V30M (FIG. 4B, triangles) dissociating under identical conditions. When the inhibitor concentration (3.6 μM) is twice that of TTR (1.8 μM), only 1% of WT TTR (FIG. 4A, diamonds), 18% of V122I (FIG. 4C, diamonds), and 70% of V30M (FIG. […]) dissociates over the same time period.
(§3) FIG. 4 illustrates a series of graphs showing the rate of urea-mediated tetramer dissociation (6 M) curves for (A) WT (circles), (B) V30M, and (C) V122I TTR. TTR dissociation is slowed dramatically when WT and the variants are preincubated with genistein (1.8 μM, triangles; 3.6 μM, diamonds). The far-UV CD ellipticity at 214-218 nm was compared to that of WT to determine the fraction of TTR that dissociated and rapidly unfolded at each time point.

The target of a further series is T3, V30M TTR (Homo sapiens, UniProt P02766, V50M).
T3 construct: made in house; host or cells: E. coli
The series is described as above. Format: biochemical. The following applies: V30M TTR 1.8 μM, 6.0 M urea, after 120 h. The procedure:
as §1, §2, §3

For series [3], the target named is T1, WT TTR. The description is as above. It counts as biochemical. The following applies: WT TTR 1.8 μM, 6.0 M urea, after 120 h. The protocol:
as §1, §2, §3

Series [4] has as its target T1, WT TTR. Put plainly: Isothermal titration calorimetry. It counts as binding. The procedure:
The dissociation constants characterizing the binding of genistein to WT TTR were determined using a Microcal isothermal titration calorimeter (Microcal Inc., Northhampton, Mass.). A solution of the small molecule (final concentration 432 μM in 25 mM Tris (pH 8.0) containing 100 mM KCl, 1 mM EDTA, 10% EtOH,) was prepared and titrated into an ITC cell containing WT TTR (12 μM in 25 mM Tris (pH 8.0) containing 100 mM KCl, 1 mM EDTA, 10% EtOH). For all runs, a small preliminary injection was followed by identical injections (2.0-5.0 μL) up to a ligand:protein molar ratio of at least 4:1. The data were fit by a nonlinear least squares approach to either an identical binding sites model, or a sequential interacting binding sites model (Foss, T. R.; et al. J. Mol. Biol. 2005, in press) utilizing Microsoft Excel (Microsoft Corporation, Redmond, Wash.) with the Solver plugin.
Isothermal titration calorimetry was employed to determine the dissociation constants of the binding of genistein to WT TTR at pH 8.0 (25° C.). Integration of the thermogram after subtraction of blanks yielded a binding isotherm that fit equally well to a model of two sequential interacting binding sites with negative cooperativity or two identical non-interacting sites. The fit to sequential binding sites yielded dissociation constants of Kd1=40±25 nM, Kd2=1400±170 nM. Fitting the data to identical binding sites gave Kd1=Kd2=845±45 nM with an occupancy of 1.92±0.07.

For series [5] the following is noted: cited from earlier work.
A further series deals with Caco-2 cells. The following applies: Caco-2 cells and perfused rat intestinal models; cited from earlier work.
The conditions of series [6]: even at the relatively high concentrations employed; cited from earlier work.

For the compound `O=c1cc(-c2ccc(O)cc2)oc2cc(O)cc(O)c12` [apigenin], the “decrease in WT TTR aggregation inhibition relative to genistein” value at WT TTR [1] (pH 4.4) came to 2 fold.

With `O=c1c(-c2ccc(O)cc2)coc2cc(O)ccc12` [daidzein, reference compound], the “decrease in aggregation inhibition potency relative to genistein” value at WT TTR [1] (inhibitor 7.2 μM, twice that of TTR) was “approximately 4 fold”. For the same compound, in series [2], the “plasma selectivity: binding stoichiometry to TTR” value is listed as at least 0.75 equivalents per tetramer.

Consider `O=c1c(-c2ccc(O)cc2)coc2cc(O)cc(O)c12` [genistein], for which the “protein that dissociates and unfolds” value at V122I TTR (genistein 1.8 μM) was determined as 33%; on V122I TTR (genistein 3.6 μM) it was 18%; at V30M TTR (genistein 1.8 μM), 87%; on V30M TTR (genistein 3.6 μM), 70%; on WT TTR [3] (genistein 1.8 μM) it was 10%; at WT TTR [3] (genistein 3.6 μM), 1%. For the same compound, the Kd amounted to 40 nM on WT TTR [4] (Kd1, two sequential interacting binding sites model (negative cooperativity), pH 8.0, 25° C.); 845 nM at WT TTR [4] (Kd1=Kd2, two identical non-interacting sites model, pH 8.0, 25° C.); 1400 nM at WT TTR [4] (read-out: Kd2, negative cooperativity, ITC); 1400 nM at WT TTR [4] (read-out: Kd2, two sequential interacting binding sites model (negative cooperativity), pH 8.0, 25° C.). The “in vivo plasma concentrations of genistein” value in [5] (dose of 16 mg/kg of body weight, oral) is 0.1 to 8 µM. The half-life in plasma in series [5] (men) was 3.2 h; in series [5] (women), 3.8 h. In addition, the intestinal absorption entry in the series on Caco-2 cells is reported as “efficiently absorbed into the intestine”. Moreover, the “adverse health effects in toxicity studies” value in [6] was “does not appear to cause adverse health effects”. Besides, the “plasma selectivity: binding stoichiometry to TTR” value in [2] came out at 1.45 equivalents per tetramer.

Turning to `O=c1c(-c2ccc(O)cc2)coc2cc(O[C@@H]3O[C@H](CO)[C@@H](O)[C@H](O)[C@H]3O)cc(O)c12` [genistin, reference compound], in the series on Caco-2 cells, the “permeability, lower than corresponding aglycone (genistein)” value is “approximately 5 fold”.

Source of the values: patent US20070037875A1, “Genistein inhibition of transthyretin amyloidosis” (The Scripps Research Institute, priority 2005, published 2007).
